The values below come from patent US10329289B2, “6,7-dihydro-5H-pyrrolo[3,4-B]pyridin-5-one allosteric modulators of the M4 muscarinic acetylcholine receptor” (Merck Sharp & Dohme Corp., priority 2015, dated 2019).

Structures are written as SMILES.

The target in the assay is T1, human M4 muscarinic acetylcholine receptor (Homo sapiens, UniProt P08173).
T1 construct: expressed in transfected cells; host or cells: CHO-K1
T1 sequence (P08173 1-479): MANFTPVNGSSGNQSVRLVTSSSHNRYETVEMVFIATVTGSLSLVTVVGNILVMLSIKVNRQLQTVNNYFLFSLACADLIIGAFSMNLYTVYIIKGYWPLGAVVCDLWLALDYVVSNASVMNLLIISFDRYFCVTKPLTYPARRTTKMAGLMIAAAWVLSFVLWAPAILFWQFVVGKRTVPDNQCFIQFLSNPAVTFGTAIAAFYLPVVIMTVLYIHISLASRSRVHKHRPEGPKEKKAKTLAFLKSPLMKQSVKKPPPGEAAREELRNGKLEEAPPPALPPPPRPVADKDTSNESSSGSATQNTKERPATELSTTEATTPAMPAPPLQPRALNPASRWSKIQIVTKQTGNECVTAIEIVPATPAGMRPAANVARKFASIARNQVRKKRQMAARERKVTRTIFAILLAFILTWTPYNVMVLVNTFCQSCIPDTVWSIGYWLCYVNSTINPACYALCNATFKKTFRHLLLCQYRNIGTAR
Put plainly: human FLIPR-based M4 PAM assay (Ca2+ mobilization, CHO-K1 cells with human M4 receptor and Gαqi5). The format is cell-based. To be noted: acetylcholine at 20% of maximum response, read-out: M4 PAM IP. In short, it runs like this:
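Calcium-mobilization (FLIPR) readout in dye-loaded CHO-K1 cells co-expressing human M4 receptor and Gαqi5. Potentiation measured against acetylcholine at a concentration giving 20% of maximal response, with an optional 70% addition; the reported value is the curve inflection point from a 4-parameter logistic fit.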
Regarding `Cc1cc2c(nc1N1[C@@H]3CC[C@H]1C[C@@H](Oc1ccc4c(cnn4C)c1)C3)CNC2=O` [Example 100, 3-methyl-2-(endo-3-((1-methyl-1H-indazol-5-yl)oxy)-8-azabicyclo[3.2.1]octan-8-yl)-6,7-dihydro-5H-pyrrolo[3,4-b]pyridin-5-one], the EC50 was 1030 nM.

As to `Cc1cc2c(nc1N1CCC(Oc3ccc4c(cnn4C)c3)CC1)[C@H](CO)N(C)C2=O` [Example 360, (R)-7-(hydroxymethyl)-3,6-dimethyl-2-(4-((1-methyl-1H-indazol-5-yl)oxy)piperidin-1-yl)-6,7-dihydro-5H-pyrrolo[3,4-b]pyridin-5-one], the EC50 worked out at 1680 nM.

For `Cc1cc2c(nc1N1CCC(Oc3ccc4c(c3)CC[C@H]4CCO)CC1)CNC2=O` [Example 157B, (S)-2-(4-((1-(2-hydroxyethyl)-2,3-dihydro-1H-inden-5-yl)oxy)piperidin-1-yl)-3-methyl-6,7-dihydro-5H-pyrrolo[3,4-b]pyridin-5-one], the EC50 turned out to be 144 nM.

As for `Cc1cc2c(nc1N1CCC(Oc3ccnc(C#N)c3)CC1)CNC2=O` [Example 93, 4-((1-(3-methyl-5-oxo-6,7-dihydro-5H-pyrrolo[3,4-b]pyridin-2-yl)piperidin-4-yl)oxy)picolinonitrile], the EC50 was 944 nM.

For the compound `Cc1c(N2CC[C@H](OCC3(C)CC3)[C@@H](F)C2)nc2c(c1C)C(=O)NC2` [Example 219A, 2-((3S,4S)-3-fluoro-4-((1-methylcyclopropyl)methoxy)piperidin-1-yl)-3,4-dimethyl-6,7-dihydro-5H-pyrrolo[3,4-b]pyridin-5-one], the EC50 was found to be 46 nM.

With `Cc1cc2c(nc1N1CCC(Oc3ccc4c(c3)CN(C)C4)CC1)CNC2=O` [Example 290, 3-Methyl-2-(4-((2-methylisoindolin-5-yl)oxy)piperidin-1-yl)-6,7-dihydro-5H-pyrrolo[3,4-b]pyridin-5-one], the EC50 came out at 353 nM.

`COc1cc(OC2CCN(c3nc4c(cc3C)C(=O)NC4)CC2)ccn1` [Example 90, 2-(4-((2-methoxypyridin-4-yl)oxy)piperidin-1-yl)-3-methyl-6,7-dihydro-5H-pyrrolo[3,4-b]pyridin-5-one]: the EC50 was determined as 94 nM.

Regarding `COC(=O)CN1Cc2nc(N3CCC(OCC4(C)CC4)CC3)c(C)c(C)c2C1=O` [Example 256, methyl 2-(3,4-dimethyl-2-(4-((1-methylcyclopropyl)methoxy)piperidin-1-yl)-5-oxo-5,7-dihydro-6H-pyrrolo[3,4-b]pyridin-6-yl)acetate], the EC50 was 85 nM.

With `Cc1cc2c(nc1N1CCC(OCc3ccncc3)CC1)CNC2=O` [Example 175A, 3-methyl-2-(4-(pyridin-4-ylmethoxy)piperidin-1-yl)-6,7-dihydro-5H-pyrrolo[3,4-b]pyridin-5-one], the EC50 was determined as 3100 nM.

For the compound `Cc1c(N2CCC(Oc3ccccc3)CC2)nc2c(c1C)C(=O)N(CCO)C2` [Example 265, 6-(2-hydroxyethyl)-3,4-dimethyl-2-(4-phenoxypiperidin-1-yl)-6,7-dihydro-5H-pyrrolo[3,4-b]pyridin-5-one], the EC50 amounted to 46 nM.

For `Cc1cc2c(nc1N1CCC(Oc3ccc(OCCN4CCC4)nc3)CC1)CNC2=O` [Example 173, 2-(4-((6-(2-(azetidin-1-yl)ethoxy)pyridin-3-yl)oxy)piperidin-1-yl)-3-methyl-6,7-dihydro-5H-pyrrolo[3,4-b]pyridin-5-one], the EC50 came to 313 nM.

As to `Cc1c(N2CC[C@@H](OCC3(C)CC3)[C@@H](F)C2)nc2c(c1C)C(=O)N(CCO)C2` [Example 268F, 2-((3S,4R)-3-fluoro-4-((1-methylcyclopropyl)methoxy)piperidin-1-yl)-6-(2-hydroxyethyl)-3,4-dimethyl-6,7-dihydro-5H-pyrrolo[3,4-b]pyridin-5-one], the EC50 was 39 nM.

On to `CCc1cc2c(nc1N1CCC(OCC3(C)CC3)CC1)CN(CCO)C2=O` [Example 268, 3-ethyl-6-(2-hydroxyethyl)-2-(4-((1-methylcyclopropyl)methoxy)piperidin-1-yl)-6,7-dihydro-5H-pyrrolo[3,4-b]pyridin-5-one], for which the EC50 is 87 nM.

For the compound `Cc1cc2c(nc1N1CCC(Oc3ccc4c(c3)COC4)CC1)CN([C@H](C)CO)C2=O` [Example 268C, (R)-2-(4-((1,3-dihydro-2-benzofuran-5-yl)oxy)piperidin-1-yl)-6-(1-hydroxypropan-2-yl)-3-methyl-6,7-dihydro-5H-pyrrolo[3,4-b]pyridin-5-one], the EC50 was found to be 53 nM.

`COc1ccc(OC2CCN(c3nc4c(cc3C)C(=O)N(CC3COC3)C4CC3COC3)CC2)cn1` (stereo not drawn) [Example 255A, 2-(4-((6-methoxypyridin-3-yl)oxy)piperidin-1-yl)-3-methyl-6,7-bis(oxetan-3-ylmethyl)-6,7-dihydro-5H-pyrrolo[3,4-b]pyridin-5-one]: the EC50 is 803 nM.

Regarding `COc1ccc(OC2CCN(c3nc4c(cc3C)C(=O)N(CC3COC3)C4)CC2)cn1` [Example 250A, 2-(4-((6-methoxypyridin-3-yl)oxy)piperidin-1-yl)-3-methyl-6-(oxetan-3-ylmethyl)-6,7-dihydro-5H-pyrrolo[3,4-b]pyridin-5-one], the EC50 stood at 70 nM.

For the compound `Cc1c(N2CCC(Oc3ccc4c(c3)COCC4)CC2)nc2c(c1C)C(=O)N(CCO)C2` [Example 268B, 6-(2-hydroxyethyl)-2-(4-(isochroman-7-yloxy)piperidin-1-yl)-3,4-dimethyl-6,7-dihydro-5H-pyrrolo[3,4-b]pyridin-5-one], the EC50 was determined as 63 nM.

Regarding `Cc1nc2ccc(OC3CCN(c4nc5c(cc4C)C(=O)NC5)CC3)cc2o1` [Example 69, 3-methyl-2-(4-((2-methylbenzo[d]oxazol-6-yl)oxy)piperidin-1-yl)-6,7-dihydro-5H-pyrrolo[3,4-b]pyridin-5-one], the EC50 was determined as 88 nM.

Turning to `Cc1cc2c(nc1N1CCC(Oc3ccc4c(c3)COC4)CC1)[C@@H](CO)N(C)C2=O` [Example 281, (S)-2-(4-((1,3-dihydro-2-benzofuran-5-yl)oxy)piperidin-1-yl)-7-(hydroxymethyl)-3,6-dimethyl-6,7-dihydro-5H-pyrrolo[3,4-b]pyridin-5-one], the EC50 amounted to 23 nM.

For `Cc1cc2c(nc1N1CCC(Oc3ccc4c(c3)OCCO4)CC1)CNC2=O` [Example 132, 2-(4-((2,3-dihydrobenzo[b][1,4]dioxin-6-yl)oxy)piperidin-1-yl)-3-methyl-6,7-dihydro-5H-pyrrolo[3,4-b]pyridin-5-one], the EC50 was 30 nM.

`Cc1cc(OC2CCN(c3nc4c(cc3C)C(=O)NC4)CC2)cnc1C` [Example 114, 2-(4-((5,6-dimethylpyridin-3-yl)oxy)piperidin-1-yl)-3-methyl-6,7-dihydro-5H-pyrrolo[3,4-b]pyridin-5-one]: the EC50 is 88 nM.

Take `Cc1cc2c(nc1N1CCC(Oc3cccc(C=O)c3)CC1)CNC2=O` [Example 308, 3-((1-(3-Methyl-5-oxo-6,7-dihydro-5H-pyrrolo[3,4-b]pyridin-2-yl)piperidin-4-yl)oxy)benzaldehyde]: the EC50 is 176 nM.

With `Cc1cc2c(nc1N1CCC(Oc3ccc(F)cc3)CC1)[C@H](CO)N(C)C2=O` [Example 280, (R)-2-(4-(4-fluorophenoxy)piperidin-1-yl)-7-(hydroxymethyl)-3,6-dimethyl-6,7-dihydro-5H-pyrrolo[3,4-b]pyridin-5-one], the EC50 was 438 nM.

Take `Cc1cc2c(nc1N1CCC(OCC3(C)CC3C#N)CC1)CNC2=O` (single isomer, unassigned) [Example 193A]: the EC50 is 312 nM.

As to `Cc1cc2c(nc1N1CCC(Oc3ccc(CO)cc3)CC1)CNC2=O` [Example 151, 2-(4-(4-(hydroxymethyl)phen-oxy)piperidin-1-yl)-3-methyl-6,7-dihydro-5H-pyrrolo[3,4-b]pyridin-5-one], the EC50 stood at 32 nM.

For `Cc1cc2c(nc1N1CCC(Oc3ccc4c(c3)c(C)nn4CCO)CC1)CNC2=O` [Example 153, 2-(4-((1-(2-hydroxyethyl)-3-methyl-1H-indazol-5-yl)oxy)piperidin-1-yl)-3-methyl-6,7-dihydro-5H-pyrrolo[3,4-b]pyridin-5-one], the EC50 stood at 528 nM.

As to `COc1ccc(OC2CCN(c3nc4c(cc3CO)C(=O)NC4)CC2)cn1` [Example 301, 3-(Hydroxymethyl)-2-(4-((6-methoxypyridin-3-yl)oxy)piperidin-1-yl)-6,7-dihydro-5H-pyrrolo[3,4-b]pyridin-5-one], the EC50 was found to be 1140 nM.

For `Cc1cc2c(nc1N1CCC(Oc3ccc(F)c(F)c3)CC1)CNC2=O` [Example 81, 2-(4-(3,4-difluorophenoxy)piperi-din-1-yl)-3-methyl-6,7-dihydro-5H-pyrrolo[3,4-b]pyridin-5-one], the EC50 is 37 nM.

Regarding `Cc1cc2c(nc1N1CCC(OC3CCOCC3)CC1)CNC2=O` [Example 42, 3-methyl-2-(4-((tetrahydro-2H-pyran-4-yl)oxy)piperidin-1-yl)-6,7-dihydro-5H-pyrrolo[3,4-b]pyridin-5-one], the EC50 stood at 1730 nM.

On to `Cc1cc2c(nc1N1CCC(Oc3ccccc3Cl)CC1)CNC2=O` [Example 73, 2-(4-(2-chlorophenoxy)piperidin-1-yl)-3-methyl-6,7-dihydro-5H-pyrrolo[3,4-b]pyridin-5-one], for which the EC50 amounted to 2250 nM.
